Laboratory results reported in US10167262B2, “Herbicidal substituted 3-arylpyrazoles” (FMC CORPORATION, priority 2014, dated 2019).

Tests used:
Format in all cases: in vivo
[1] = tested on: blackgrass (Alopecurus myosuroides); experiment: Test C pre-/postemergence greenhouse test, plant response rating 0-100; conditions: Alopecurus myosuroides, post-emergence, Postemergence
Procedure, shortened: (§1)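 Seeds were sown in a loam soil–sand blend and sprayed preemergence with test chemicals in a non-phytotoxic solvent mixture containing surfactant; postemergence plants in peat/vermiculite medium were treated at 2–18 cm (1- to 4-leaf stage). After 13 to 15 days in the greenhouse, injury was rated visually against untreated controls.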

corn (Zea mays) = experiment: as above; conditions: Zea mays, post-emergence, Postemergence
Procedure, shortened: as §1

[2] = tested on: giant foxtail (Setaria faberii); experiment: as above; conditions: Setaria faberi, post-emergence, Postemergence
Procedure, shortened: as §1

[3] = tested on: johnsongrass (Sorghum halepense); experiment: as above; conditions: Sorghum halepense, post-emergence, Postemergence
Procedure, shortened: as §1

[4] = tested on: lambsquarters (Chenopodium album); experiment: as above; conditions: Chenopodium album, post-emergence, Postemergence
Procedure, shortened: as §1

[5] = tested on: morningglory (Ipomoea coccinea); experiment: as above; conditions: Ipomoea, post-emergence, Postemergence
Procedure, shortened: as §1

[6] = tested on: pigweed (Amaranthus retroflexus); experiment: as above; conditions: Amaranthus retroflexus, post-emergence, Postemergence
Procedure, shortened: as §1

soybean (Glycine max) = experiment: as above; conditions: Glycine max, post-emergence, Postemergence
Procedure, shortened: as §1

[7] = tested on: velvetleaf (Abutilon theophrasti); experiment: as above; conditions: Abutilon theophrasti, post-emergence, Postemergence
Procedure, shortened: as §1

[8] = tested on: winter wheat (Triticum aestivum); experiment: as above; conditions: Triticum aestivum, post-emergence, Postemergence
Procedure, shortened: as §1

[9] = tested on: chickweed (common chickweed, Stellaria media); experiment: Test C postemergence greenhouse test, plant response rating 0-100; conditions: Stellaria media, post-emergence
Procedure, shortened: (§2)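 Postemergence spray of formulated test chemicals on plants 2 to 18 cm tall (1- to 4-leaf stage) grown in peat/vermiculite medium. Greenhouse hold 13 to 15 days, then visual comparison with untreated controls on a 0-100 scale (0 no effect, 100 complete control); dash means no test result.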

kochia (Kochia scoparia) = experiment: as above; conditions: Bassia scoparia, post-emergence
Procedure, shortened: as §2

wild oat (Avena fatua) = experiment: as above; conditions: Avena fatua, post-emergence
Procedure, shortened: as §2

Structure (SMILES): CCn1cc(C(=O)c2ccccc2)c(-c2cc(Cl)cc(Cl)c2)n1 [Compound 31, [3-(3,5-dichlorophenyl)-1-ethyl-1H-pyrazol-4-yl]phenylmethanone]
- pest or weed control at 16 g/ha ([1]; 16 g ai/ha): 0%
- pest or weed control at 31 g/ha ([1]; 31 g ai/ha, read-out: Plant response rating (0 to 100), Blackgrass): 0%
- pest or weed control at 62 g/ha ([1]; 62 g ai/ha, read-out: Plant response rating (0 to 100), Blackgrass): 0%
- pest or weed control at 125 g/ha ([1]; 125 g ai/ha, read-out: Plant response rating (0 to 100), Blackgrass): 0%
- Corn plant response rating (crop injury, 0 = no effect, 100 = complete kill) at 16 g/ha (corn (Zea mays); 16 g ai/ha): 0%
- plant injury at 31 g/ha (corn (Zea mays); 31 g ai/ha): 0%
- plant injury at 62 g/ha (corn (Zea mays); 62 g ai/ha): 0%
- plant injury at 125 g/ha (corn (Zea mays); 125 g ai/ha): 0%
- pest or weed control at 16 g/ha ([2]; 16 g ai/ha): 5%
- pest or weed control at 31 g/ha ([2]; 31 g ai/ha, read-out: Plant response rating (0 to 100), Foxtail, Giant): 5%
- pest or weed control at 62 g/ha ([2]; 62 g ai/ha, read-out: Plant response rating (0 to 100), Foxtail, Giant): 5%
- pest or weed control at 125 g/ha ([2]; 125 g ai/ha, read-out: Plant response rating (0 to 100), Foxtail, Giant): 5%
- pest or weed control at 16 g/ha ([3]; 16 g ai/ha): 0%
- pest or weed control at 62 g/ha ([3]; 62 g ai/ha, read-out: Plant response rating (0 to 100), Johnsongrass): 5%
- pest or weed control at 125 g/ha ([3]; 125 g ai/ha, read-out: Plant response rating (0 to 100), Johnsongrass): 10%
- pest or weed control at 16 g/ha ([4]; 16 g ai/ha): 25%
- pest or weed control at 62 g/ha ([4]; 62 g ai/ha, read-out: Plant response rating (0 to 100), Lambsquarters): 55%
- pest or weed control at 125 g/ha ([4]; 125 g ai/ha, read-out: Plant response rating (0 to 100), Lambsquarters): 80%
- pest or weed control at 16 g/ha ([5]; 16 g ai/ha): 0%
- pest or weed control at 62 g/ha ([5]; 62 g ai/ha, read-out: Plant response rating (0 to 100), Morningglory): 5%
- pest or weed control at 125 g/ha ([5]; 125 g ai/ha, read-out: Plant response rating (0 to 100), Morningglory): 5%
- pest or weed control at 16 g/ha ([6]; 16 g ai/ha): 20%
- pest or weed control at 125 g/ha ([6]; 125 g ai/ha, read-out: Plant response rating (0 to 100), Pigweed): 75%
- plant injury at 16 g/ha (soybean (Glycine max); 16 g ai/ha): 0%
- plant injury at 62 g/ha (soybean (Glycine max); 62 g ai/ha, read-out: Plant response rating (0 to 100), Soybean): 0%
- plant injury at 125 g/ha (soybean (Glycine max); 125 g ai/ha, read-out: Plant response rating (0 to 100), Soybean): 5%
- pest or weed control at 16 g/ha ([7]; 16 g ai/ha): 50%
- pest or weed control at 62 g/ha ([7]; 62 g ai/ha, read-out: Plant response rating (0 to 100), Velvetleaf): 75%
- pest or weed control at 125 g/ha ([7]; 125 g ai/ha, read-out: Plant response rating (0 to 100), Velvetleaf): 80%
- plant injury at 16 g/ha ([8]; 16 g ai/ha): 0%
- plant injury at 62 g/ha ([8]; 62 g ai/ha, read-out: Plant response rating (0 to 100), Wheat): 0%
- plant injury at 125 g/ha ([8]; 125 g ai/ha, read-out: Plant response rating (0 to 100), Wheat): 0%
- pest or weed control at 16 g/ha ([9]; 16 g ai/ha): 10%
- pest or weed control at 31 g/ha ([9]; 31 g ai/ha): 70%
- pest or weed control at 62 g/ha ([9]; 62 g ai/ha): 75%
- pest or weed control at 125 g/ha ([9]; 125 g ai/ha): 80%
- pest or weed control at 16 g/ha (kochia (Kochia scoparia); 16 g ai/ha): 5%
- pest or weed control at 62 g/ha (kochia (Kochia scoparia); 62 g ai/ha): 40%
- pest or weed control at 125 g/ha (kochia (Kochia scoparia); 125 g ai/ha): 40%
- pest or weed control at 16 g/ha (wild oat (Avena fatua); 16 g ai/ha): 0%
- pest or weed control at 62 g/ha (wild oat (Avena fatua); 62 g ai/ha): 0%
- pest or weed control at 125 g/ha (wild oat (Avena fatua); 125 g ai/ha): 0%
